How the values were obtained:
[1] = Tmax in Sprague-Dawley rat at 2 mg/kg, iv measured for 24 hrs by LC-MS/MS-18 analysis; format: ADME, organism-based; details: in vivo
[2] = Volume of distribution at steady state in Sprague-Dawley rat at 2 mg/kg, iv measured for 24 hrs by LC-MS/MS-18 analysis; format: ADME, organism-based; details: in vivo, read-out: Vdss
[3] = Cmax in Sprague-Dawley rat at 2 mg/kg, iv measured for 24 hrs by LC-MS/MS-18 analysis; format: ADME, organism-based; set-up: time 24 hrs, dose 2 mg/kg, route iv; details: in vivo
[4] = Tmax in Sprague-Dawley rat at 5 mg/kg, ip measured for 24 hrs by LC-MS/MS-18 analysis; format: ADME, organism-based; details: in vivo
[5] = biological target: Fibroblast growth factor receptor 3 (Homo sapiens, UniProt P22607); assay: Inhibition of FGFR3 (unknown origin)
Histone deacetylase 1 = Histone deacetylase 1 (Homo sapiens, UniProt Q13547); assay: Inhibition of HDAC1 (unknown origin)
Histone deacetylase 2 = Histone deacetylase 2 (Homo sapiens, UniProt Q92769); assay: Inhibition of HDAC2 (unknown origin)
Histone deacetylase 8 = biological target: T1, Histone deacetylase 8 (Homo sapiens, UniProt Q9BY41); assay: Inhibition of HDAC8 (unknown origin)
T1 sequence (Q9BY41 whole entry): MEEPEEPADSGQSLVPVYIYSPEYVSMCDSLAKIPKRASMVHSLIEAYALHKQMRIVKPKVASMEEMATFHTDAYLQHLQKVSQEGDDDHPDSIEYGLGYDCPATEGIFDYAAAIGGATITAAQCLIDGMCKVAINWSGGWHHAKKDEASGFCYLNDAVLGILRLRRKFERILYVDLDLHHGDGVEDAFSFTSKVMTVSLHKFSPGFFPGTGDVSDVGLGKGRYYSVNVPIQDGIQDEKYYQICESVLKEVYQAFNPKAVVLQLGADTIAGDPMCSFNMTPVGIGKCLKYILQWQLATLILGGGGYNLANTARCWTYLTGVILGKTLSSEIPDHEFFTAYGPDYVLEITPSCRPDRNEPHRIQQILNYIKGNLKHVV

[6] = AUC (0 to infinity) in Sprague-Dawley rat at 5 mg/kg, ip measured for 24 hrs by LC-MS/MS-18 analysis; format: ADME, organism-based; set-up: time 24 hrs, dose 5 mg/kg, route ip; details: in vivo
[7] = biological target: T2, Protein deacetylase HDAC6 (Homo sapiens, UniProt Q9UBN7); assay: Inhibition of HDAC6 (unknown origin)
T2 sequence (Q9UBN7 whole entry): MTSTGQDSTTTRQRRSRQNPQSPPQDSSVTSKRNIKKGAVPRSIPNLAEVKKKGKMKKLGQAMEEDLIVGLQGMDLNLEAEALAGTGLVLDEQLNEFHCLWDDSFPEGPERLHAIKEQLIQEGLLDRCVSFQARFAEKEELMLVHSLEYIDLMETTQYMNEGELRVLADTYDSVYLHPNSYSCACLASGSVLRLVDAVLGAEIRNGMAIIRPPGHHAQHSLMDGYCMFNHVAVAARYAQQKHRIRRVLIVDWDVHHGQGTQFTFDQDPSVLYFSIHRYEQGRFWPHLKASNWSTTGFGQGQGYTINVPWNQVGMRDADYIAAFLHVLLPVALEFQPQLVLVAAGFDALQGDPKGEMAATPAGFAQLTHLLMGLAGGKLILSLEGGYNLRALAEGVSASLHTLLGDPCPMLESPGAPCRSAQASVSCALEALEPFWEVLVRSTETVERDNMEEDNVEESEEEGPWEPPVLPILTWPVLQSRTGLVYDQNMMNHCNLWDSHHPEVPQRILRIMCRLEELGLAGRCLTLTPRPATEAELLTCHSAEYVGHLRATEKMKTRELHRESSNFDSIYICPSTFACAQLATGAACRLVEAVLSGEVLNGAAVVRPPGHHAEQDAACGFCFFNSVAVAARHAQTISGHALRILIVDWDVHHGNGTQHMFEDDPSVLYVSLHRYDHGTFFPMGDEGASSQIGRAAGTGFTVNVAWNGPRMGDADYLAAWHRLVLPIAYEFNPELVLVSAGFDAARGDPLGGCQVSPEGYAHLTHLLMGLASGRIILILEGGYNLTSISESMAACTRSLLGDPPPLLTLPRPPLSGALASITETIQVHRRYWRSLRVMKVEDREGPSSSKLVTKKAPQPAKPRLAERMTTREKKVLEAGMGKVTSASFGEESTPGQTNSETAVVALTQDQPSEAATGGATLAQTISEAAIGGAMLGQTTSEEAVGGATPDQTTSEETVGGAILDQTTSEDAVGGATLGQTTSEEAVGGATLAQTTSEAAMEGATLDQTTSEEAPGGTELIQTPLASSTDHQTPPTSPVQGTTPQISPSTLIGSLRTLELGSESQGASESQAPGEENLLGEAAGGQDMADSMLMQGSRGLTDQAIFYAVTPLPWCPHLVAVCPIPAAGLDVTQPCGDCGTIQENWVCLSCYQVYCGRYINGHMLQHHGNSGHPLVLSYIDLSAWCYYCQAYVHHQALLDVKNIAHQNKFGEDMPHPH

[8] = AUC (0 to infinity) in Sprague-Dawley rat at 2 mg/kg, iv measured for 24 hrs by LC-MS/MS-18 analysis; format: ADME, organism-based; set-up: time 24 hrs, dose 2 mg/kg, route iv; details: in vivo
[9] = Cmax in Sprague-Dawley rat at 5 mg/kg, ip measured for 24 hrs by LC-MS/MS-18 analysis; format: ADME, organism-based; set-up: time 24 hrs, dose 5 mg/kg, route ip; details: in vivo
[10] = Toxicity in BALB/c nude mouse xenografted with human SNU-16 cells assessed as reduction in body weight at 15 to 30 mg/kg/day, ip administered for 18 days and measured every 3 days; format: organism-based; details: in vivo, 432 h, dose 15-30 mg/kg/day, time 18 day
[11] = Half life in Sprague-Dawley rat at 30 mg/kg, po measured for 24 hrs by LC-MS/MS-18 analysis; format: ADME, organism-based; details: in vivo
[12] = biological target: Fibroblast growth factor receptor 4 (Homo sapiens, UniProt P22455); assay: Inhibition of FGFR4 (unknown origin)
[13] = Clearance in Sprague-Dawley rat at 2 mg/kg, iv measured for 24 hrs by LC-MS/MS-18 analysis; format: ADME, organism-based; details: in vivo
[14] = Oral bioavailability in Sprague-Dawley rat at 30 mg/kg measured for 24 hrs by LC-MS/MS-18 analysis; format: ADME, organism-based; details: in vivo
[15] = AUC (0 to infinity) in Sprague-Dawley rat at 30 mg/kg, po measured for 24 hrs by LC-MS/MS-18 analysis; format: ADME, organism-based; set-up: dose 30 mg/kg, time 24 hrs, route po; details: in vivo
[16] = Cmax in Sprague-Dawley rat at 30 mg/kg, po measured for 24 hrs by LC-MS/MS-18 analysis; format: ADME, organism-based; set-up: dose 30 mg/kg, time 24 hrs, route po; details: in vivo
[17] = Oral bioavailability in Sprague-Dawley rat at 5 mg/kg measured for 24 hrs by LC-MS/MS-18 analysis; format: ADME, organism-based; details: in vivo, route ip
[18] = biological target: Fibroblast growth factor receptor 2 (Homo sapiens, UniProt P21802); assay: Inhibition of FGFR2 (unknown origin)
[19] = Half life in Sprague-Dawley rat at 5 mg/kg, ip measured for 24 hrs by LC-MS/MS-18 analysis; format: ADME, organism-based; details: in vivo
[20] = Toxicity in BALB/c nude mouse xenografted with human HCT-116 cells assessed as reduction in body weight at 15 to 30 mg/kg/day, po administered for 18 days and measured every 3 days; format: organism-based; details: in vivo, 432 h, dose 15-30 mg/kg/day, time 18 day
[21] = Tmax in Sprague-Dawley rat at 30 mg/kg, po measured for 24 hrs by LC-MS/MS-18 analysis; format: ADME, organism-based; details: in vivo
[22] = Half life in Sprague-Dawley rat at 2 mg/kg, iv measured for 24 hrs by LC-MS/MS-18 analysis; format: ADME, organism-based; details: in vivo

Chain of Fibroblast growth factor receptor 3 (P22607 whole entry): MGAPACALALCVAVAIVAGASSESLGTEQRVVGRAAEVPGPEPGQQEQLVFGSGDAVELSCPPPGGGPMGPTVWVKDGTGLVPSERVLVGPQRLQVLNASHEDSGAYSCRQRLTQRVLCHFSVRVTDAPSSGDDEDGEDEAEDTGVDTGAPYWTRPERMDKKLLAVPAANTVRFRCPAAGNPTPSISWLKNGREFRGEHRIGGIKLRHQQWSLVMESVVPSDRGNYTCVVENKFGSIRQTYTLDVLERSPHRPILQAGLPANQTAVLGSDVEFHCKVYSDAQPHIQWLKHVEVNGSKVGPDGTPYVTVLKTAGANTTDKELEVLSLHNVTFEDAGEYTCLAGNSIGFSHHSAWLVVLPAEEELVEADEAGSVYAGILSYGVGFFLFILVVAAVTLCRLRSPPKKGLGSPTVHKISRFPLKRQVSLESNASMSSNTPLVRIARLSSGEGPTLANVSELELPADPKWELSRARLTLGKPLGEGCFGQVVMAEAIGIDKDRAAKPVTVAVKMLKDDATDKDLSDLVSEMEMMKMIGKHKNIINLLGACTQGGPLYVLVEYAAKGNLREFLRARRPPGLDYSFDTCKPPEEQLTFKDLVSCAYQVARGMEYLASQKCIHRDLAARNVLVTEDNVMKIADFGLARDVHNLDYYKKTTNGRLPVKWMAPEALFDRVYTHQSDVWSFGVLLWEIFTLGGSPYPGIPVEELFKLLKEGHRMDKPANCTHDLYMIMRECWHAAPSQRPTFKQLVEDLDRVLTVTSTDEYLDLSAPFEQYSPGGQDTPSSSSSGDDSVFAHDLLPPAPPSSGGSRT
Chain of Histone deacetylase 1 (Q13547 whole entry): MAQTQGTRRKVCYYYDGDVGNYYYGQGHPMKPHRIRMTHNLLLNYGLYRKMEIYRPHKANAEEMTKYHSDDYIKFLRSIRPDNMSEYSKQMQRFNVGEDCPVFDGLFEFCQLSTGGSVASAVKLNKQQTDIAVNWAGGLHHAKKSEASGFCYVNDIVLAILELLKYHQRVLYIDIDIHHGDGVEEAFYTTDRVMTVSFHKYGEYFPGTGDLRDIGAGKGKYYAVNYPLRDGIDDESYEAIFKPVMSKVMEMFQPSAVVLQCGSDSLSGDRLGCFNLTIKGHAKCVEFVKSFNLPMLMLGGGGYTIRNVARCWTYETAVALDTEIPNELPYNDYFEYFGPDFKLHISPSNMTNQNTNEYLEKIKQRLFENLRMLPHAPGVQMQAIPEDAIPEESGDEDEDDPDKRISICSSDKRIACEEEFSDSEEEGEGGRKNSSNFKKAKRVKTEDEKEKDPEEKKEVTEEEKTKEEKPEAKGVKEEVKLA
Chain of Fibroblast growth factor receptor 4 (P22455 whole entry): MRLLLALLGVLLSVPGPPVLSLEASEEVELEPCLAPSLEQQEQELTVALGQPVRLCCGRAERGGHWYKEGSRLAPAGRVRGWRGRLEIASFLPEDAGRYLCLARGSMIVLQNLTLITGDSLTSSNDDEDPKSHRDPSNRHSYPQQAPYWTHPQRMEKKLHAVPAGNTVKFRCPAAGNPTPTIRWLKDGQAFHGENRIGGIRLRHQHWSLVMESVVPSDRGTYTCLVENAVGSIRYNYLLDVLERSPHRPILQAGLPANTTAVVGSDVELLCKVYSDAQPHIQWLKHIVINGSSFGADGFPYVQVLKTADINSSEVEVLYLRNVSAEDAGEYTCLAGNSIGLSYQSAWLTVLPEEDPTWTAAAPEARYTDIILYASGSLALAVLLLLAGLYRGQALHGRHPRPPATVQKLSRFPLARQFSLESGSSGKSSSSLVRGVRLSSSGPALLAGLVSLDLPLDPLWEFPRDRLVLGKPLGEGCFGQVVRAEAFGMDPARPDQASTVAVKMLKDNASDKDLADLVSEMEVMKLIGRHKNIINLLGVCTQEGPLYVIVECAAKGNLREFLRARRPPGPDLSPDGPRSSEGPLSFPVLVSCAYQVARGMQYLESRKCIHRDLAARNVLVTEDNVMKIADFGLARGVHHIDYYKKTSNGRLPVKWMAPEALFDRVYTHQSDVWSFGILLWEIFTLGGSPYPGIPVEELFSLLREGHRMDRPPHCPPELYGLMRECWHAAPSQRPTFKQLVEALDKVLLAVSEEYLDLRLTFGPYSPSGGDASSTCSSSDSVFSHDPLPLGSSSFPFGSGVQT
Chain of Fibroblast growth factor receptor 2 (P21802 whole entry): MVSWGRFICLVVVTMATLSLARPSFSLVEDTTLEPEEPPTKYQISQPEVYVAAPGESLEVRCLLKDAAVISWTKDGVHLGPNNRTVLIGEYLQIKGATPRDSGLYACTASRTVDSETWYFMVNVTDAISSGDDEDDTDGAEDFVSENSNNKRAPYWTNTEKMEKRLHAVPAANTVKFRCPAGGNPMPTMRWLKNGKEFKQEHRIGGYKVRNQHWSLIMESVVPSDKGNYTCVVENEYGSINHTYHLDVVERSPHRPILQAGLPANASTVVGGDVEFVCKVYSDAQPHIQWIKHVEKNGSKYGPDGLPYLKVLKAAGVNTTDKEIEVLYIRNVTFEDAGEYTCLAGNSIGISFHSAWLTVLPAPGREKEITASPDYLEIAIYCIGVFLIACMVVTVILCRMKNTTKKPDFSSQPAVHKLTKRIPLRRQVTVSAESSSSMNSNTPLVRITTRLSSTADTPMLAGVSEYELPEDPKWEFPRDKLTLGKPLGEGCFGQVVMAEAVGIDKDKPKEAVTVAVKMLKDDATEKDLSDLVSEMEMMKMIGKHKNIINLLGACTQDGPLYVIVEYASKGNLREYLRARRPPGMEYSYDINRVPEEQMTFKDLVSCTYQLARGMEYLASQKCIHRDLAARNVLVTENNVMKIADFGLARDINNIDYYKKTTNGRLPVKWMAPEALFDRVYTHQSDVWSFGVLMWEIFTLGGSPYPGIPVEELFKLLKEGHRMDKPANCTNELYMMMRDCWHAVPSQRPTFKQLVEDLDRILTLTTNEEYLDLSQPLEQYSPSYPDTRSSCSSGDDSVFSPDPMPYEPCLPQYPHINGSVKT
Chain of Histone deacetylase 2 (Q92769 whole entry): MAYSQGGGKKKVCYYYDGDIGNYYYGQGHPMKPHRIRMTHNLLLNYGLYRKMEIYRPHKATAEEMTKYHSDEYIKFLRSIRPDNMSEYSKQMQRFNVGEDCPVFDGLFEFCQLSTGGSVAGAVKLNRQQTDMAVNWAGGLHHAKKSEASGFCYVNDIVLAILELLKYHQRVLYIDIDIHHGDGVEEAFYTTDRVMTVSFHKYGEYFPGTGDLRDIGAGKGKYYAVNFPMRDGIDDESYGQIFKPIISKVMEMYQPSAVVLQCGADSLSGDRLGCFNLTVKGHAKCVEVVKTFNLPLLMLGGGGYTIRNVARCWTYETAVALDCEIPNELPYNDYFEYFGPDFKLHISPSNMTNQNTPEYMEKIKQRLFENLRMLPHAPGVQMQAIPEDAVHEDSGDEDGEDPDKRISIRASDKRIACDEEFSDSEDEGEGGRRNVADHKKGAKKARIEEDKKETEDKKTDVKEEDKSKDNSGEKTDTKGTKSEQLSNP

COc1cc(OC)cc(N(CCNC(C)C)c2ccc3ncc(-c4cnn(CCCCCCC(=O)NO)c4)nc3c2)c1
Tmax [1]: 4.8 min | Vd [2]: 2.79 L/kg | Cmax [3]: 1120 ng/mL | Tmax [4]: 2 h | IC50 [5]: 0.46 nM | IC50 (Histone deacetylase 1): 1.3 nM | IC50 (Histone deacetylase 2): 1.6 nM | IC50 (Histone deacetylase 8): 13 nM | AUC(0-inf) [6]: 491 ng·h/mL | IC50 [7]: 2.6 nM | AUC(0-inf) [8]: 425 ng·h/mL | Cmax [9]: 102 ng/mL | Activity [10]: Non-Toxic | half-life [11]: 0.77 h | IC50 [12]: 1.4 nM | clearance [13]: 80.6 mL/min/kg | bioavailability [14]: 24.8% | AUC(0-inf) [15]: 1560 ng·h/mL | Cmax [16]: 443 ng/mL | bioavailability [17]: 43.8% | IC50 [18]: 1.2 nM | half-life [19]: 1.83 h | Activity [20]: Non-Toxic | Tmax [21]: 4 h | half-life [22]: 0.98 h

From ChEMBL document CHEMBL5150061, “Design and Synthesis of Fibroblast Growth Factor Receptor (FGFR) and Histone Deacetylase (HDAC) Dual Inhibitors for the Treatment of Cancer” (J Med Chem, 2022)
